Data from patent US20220168295A1, “RIMEGEPANT FOR CGRP RELATED DISORDERS” (Biohaven Pharmaceutical Ireland DAC, priority 2018, published 2022).

Legend:
[1] = system: subjects with Acute Migraines; assay: Study 303 (BHV3000-303) Phase 3 placebo-controlled trial, rimegepant 75 mg ODT, acute treatment of migraine: efficacy and safety; type: in vivo, human
Experimental: Clinical Trial—BHV3000-303: Phase 3: Double-Blind, Randomized, Placebo-Controlled, Safety and Efficacy Trial of BHV-3000 (Rimegepant) Orally Discintegrating Tablet (ODT) for the Acute Treatment of Migraine (ClinicalTrials.gov Identifier: NCT03461757) A phase 3 clinical study was conducted with 1812 participants, as follows. […] Pain freedom of rimegepant compared with placebo in the acute treatment of migraine will be measured using the number of evaluable subjects that report no pain at 2 hours post-dose. […] Pain will be measured on a 4 point Likert scale (0=none, 1=mild, 2=moderate, 3=severe) 2. Freedom from the most bothersome symptom (MBS) of rimegepant compared with placebo will be measured using the number of evaluable subjects that report the absence of their MBS at 2 hours post-dose. […] The MBS (nausea, phonophobia or photophobia) will measured using a binary scale (0=absent, 1=present). […] Pain Relief as measured by a 4 point numeric rating scale (None, Mild, Moderate, Severe) 2. […] Sustained Pain Relief as measured by a 4 point numeric rating scale (None, Mild, Moderate, Severe) 4. […] To measure rimegepant compared to placebo on the probability of requiring rescue medication will be assessed using the number of subjects that take rescue medication within […] administration of study medication (BHV3000 or placebo). […]

[2] = Pooled liver function test (LFT) profile, Study 301 and Study 302; type: in vivo, human; conditions: pooled Study 301 and 302; n = 1089
Experimental: (§1) In a double-blind, randomized, placebo-controlled, multicenter study (Study 301, NCT03235479) adults 3.8 years of age with at least a 1-year history of ICHD 3-beta migraine were eligible to participate. Following a 3- to 28-day screening period, subjects were randomized to receive rimegepant 75 mg or matching placebo and instructed to treat a single migraine attack with 1 dose of the blinded study drug (rimegepant or placebo) when headache pain reached moderate or severe intensity. The coprimary endpoints were pain freedom at 2 hours postdose and freedom from the most bothersome symptom (MBS) at 2 hours postdose. Safety assessments included adverse events (AEs), ECGs, vital signs, physical measurements, and routine laboratory tests, including assessment of liver function. Unless stated otherwise, values presented are mean±SD.
as §1, with “302, NCT03237845)” for “301, NCT03235479)”, “≥18” for “3.8”

N[C@@H]1c2cccnc2[C@H](OC(=O)N2CCC(n3c(=O)[nH]c4ncccc43)CC2)CC[C@H]1c1cccc(F)c1F [Rimegepant, [(5S,6S,9R)-5-amino-6-(2,3-difluorophenyl)-6,7,8,9-tetrahydro-5H-cyclohepta[b]pyridin-9-yl] 4-(2-oxo-3H-imidazo[4,5-b]pyridin-1-yl)piperidine-1-carboxylate]
Patients with LFTs >3xULN [1]: one | ALT >3x ULN, subjects n (%) [2]: 1 (0.1%) n (%) | ALT >5x ULN, subjects [2]: 0 | ALT >10x ULN, subjects [2]: 0 | ALT >20x ULN, subjects [2]: 0 | ALT >ULN, subjects n (%) [2]: 22 (2.0%) n (%) | AST >3x ULN, subjects n (%) [2]: 1 (0.1%) n (%) | AST >5x ULN, subjects [2]: 0 | AST >10x ULN, subjects [2]: 0 | AST >20x ULN, subjects [2]: 0 | AST >ULN, subjects n (%) [2]: 12 (1.1%) n (%)
